Source: US3983105A, “Penicillins” (Bayer Aktiengesellschaft, priority 1971, dated 1976)
Several values for one entry are separate records, joined by “and”; a condition that tells them apart may be missing. Identical values can stand only once.

Legend:
Format in all cases: cell-based
Streptococcus faecalis = assay: MIC, test tube serial dilution, Streptococcus faecalis
Klebsiella-Aerobacter = assay: MIC, test tube serial dilution, Klebsiella-Aerobacter
Escherichia coli = assay: MIC, test tube serial dilution, Escherichia coli
Staphylococcus aureus = assay: MIC, test tube serial dilution, Staphylococcus aureus
Pseudomonas aeruginosa = assay: MIC, test tube serial dilution, Pseudomonas aeruginosa
Proteus vulgaris = assay: MIC, test tube serial dilution, Proteus vulgaris
Proteus morganii = assay: MIC, test tube serial dilution, Proteus morganii; conditions: unit assumed
[1] = strain 1756 (BRL 1 756), 24 hours, 37°C

Row | Compound | MIC (Streptococcus faecalis; ATCC 9790, 24 hours, 37°C) [U/ml] | MIC (Klebsiella-Aerobacter; strain 63, 24 hours, 37°C) [U/ml] | MIC (Escherichia coli; strain 183/58, 24 hours, 37°C) [U/ml] | MIC (Escherichia coli; strain A 261, 24 hours, 37°C) [U/ml] | MIC (Staphylococcus aureus; [1]) [U/ml] | MIC (Pseudomonas aeruginosa; strain Bonn, 24 hours, 37°C) [U/ml] | MIC (Proteus vulgaris; unit assumed) [µg/mL] | MIC (Proteus morganii) [µg/mL] | MIC (Streptococcus faecalis; unit assumed) [µg/mL] | MIC (Klebsiella-Aerobacter; in µg/mL (unit assumed)) | MIC (Pseudomonas aeruginosa; in µg/mL (unit assumed)) | also measured
1 | CC(=O)N1CCN(C(=O)N[C@@H](C(=O)N[C@@H]2C(=O)N3[C@@H]2SC(C)(C)[C@@H]3C(=O)O)c2ccccc2)C1=O [Example 1, Sodium D(-)-α-[(3-acetyl-imidazolidin-2-on-1-yl)-carbonylamino]-benzylpenicillin] | 25 | 25 | 3 | 400 | 400 | 25 | 6 | 6 | – | – | – | MIC (Klebsiella-Aerobacter; strain K 10, 24 hours, 37°C): 100 U/ml; MIC (Pseudomonas aeruginosa; strain Walter, 24 hours, 37°C): 50 U/ml
2 | COC(=O)N1CCN(C(=O)N[C@@H](C(=O)N[C@@H]2C(=O)N3[C@@H]2SC(C)(C)[C@@H]3C(=O)O)c2ccccc2)C1=O [Example 3, Sodium D(-)-α-[(3-methoxycarbonyl-imidazolidin-2-on-1-yl)-carbonylamino]-benzylpenicillin] | 64 | 16 | 4 | – | > 256 | 16 | 8 | 8 | – | – | – | MIC (Klebsiella-Aerobacter; strain K 10, 24 hours, 37°C): 16 U/ml; MIC (Pseudomonas aeruginosa; strain Walter, 24 hours, 37°C): 16 U/ml
3 | CC1(C)S[C@@H]2[C@H](NC(=O)[C@H](NC(=O)N3CCN(C(N)=O)C3=O)c3ccccc3)C(=O)N2[C@H]1C(=O)O [Example 5, Sodium D(-)-α-[(3-aminocarbonyl-imidazolidin-2-on-1-yl)-carbonylamino]-benzylpenicillin] | – | 16 | 4 | 256 | > 256 | – | – | 32 | 32 | 32 | 32 | –
4 | CC(C)OC(=O)N1CCN(C(=O)N[C@@H](C(=O)N[C@@H]2C(=O)N3[C@@H]2SC(C)(C)[C@@H]3C(=O)O)c2ccccc2)C1=O [Example 7, Sodium D(-)-α-[(3-i-propyloxycarbonyl-imidazolidin-2-on-1-yl)-carbonylamino]-benzylpenicillin] | 16 | – | < 1 | > 256 | 128 | 16 | – | – | – | – | 8 | MIC (Proteus vulgaris; strain 1017, 24 hours, 37°C): 16 U/ml
5 | CC1(C)S[C@@H]2[C@H](NC(=O)[C@H](NC(=O)N3CCN(C(=O)N4CCCC4)C3=O)c3ccccc3)C(=O)N2[C@H]1C(=O)O [Example 8, Sodium D(-)-α-[(3-pyrrolidyl-N-carbonyl-imidazolidin-2-on-1-yl)-carbonylamino]-benzylpenicillin] | – | – | 4 | – | 128 | – | 32 | 64 | 128 | – | 32 | –
6 | CC1(C)S[C@@H]2[C@H](NC(=O)[C@H](NC(=O)N3CCN(C(=O)Nc4ccccc4)C3=O)c3ccccc3)C(=O)N2[C@H]1C(=O)O [Example 10, Sodium D(-)-α-[(3-phenylaminocarbonyl-imidazolidin-2-on-1-yl)-carbonylamino]-benzylpenicillin] | – | – | 4 | > 256 | > 256 | 64 | 8 | – | 128 | 8 | – | MIC (Pseudomonas aeruginosa; strain Walter, 24 hours, 37°C): 256 U/ml
7 | CC1(C)S[C@@H]2[C@H](NC(=O)[C@H](NC(=O)N3CCN(C(=O)Oc4ccccc4)C3=O)c3ccccc3)C(=O)N2[C@H]1C(=O)O [Example 11, Sodium D(-)-α-[(3-phenoxycarbonyl-imidazolidin-2-on-1-yl)-carbonylamino]-benzylpenicillin] | – | – | – | – | – | – | 16 | 8 | 16 | 4 | 32 and 16 | –
8 | CC1(C)S[C@@H]2[C@H](NC(=O)[C@H](NC(=O)N3CCN(C(=O)c4ccccc4)C3=O)c3ccccc3)C(=O)N2[C@H]1C(=O)O [Example 12, Sodium D(-)-α-[(3-benzoyl-imidazolidin-2-on-1-yl)-carbonylamino]-benzylpenicillin] | – | – | < 1 | 64 | 256 | – | – | 8 | 32 | 8 | 32 | –
9 | CC1(C)S[C@@H]2[C@H](NC(=O)[C@H](NC(=O)N3CCN(C(=O)c4ccco4)C3=O)c3ccccc3)C(=O)N2[C@H]1C(=O)O [Example 13, Sodium D(-)-α-[(3-furoyl(2)-imidazolidin-2-on-1-yl)-carbonylamino]-benzylpenicillin] | 16 | – | < 1 | – | 128 | – | – | – | – | 8 | – | MIC (Pseudomonas aeruginosa; strain F 41, 24 hours, 37°C): 16 U/ml; MIC (Pseudomonas aeruginosa; strain Walter, 24 hours, 37°C): 16 U/ml
10 | CCCC(=O)N1CCN(C(=O)N[C@@H](C(=O)N[C@@H]2C(=O)N3[C@@H]2SC(C)(C)[C@@H]3C(=O)O)c2ccccc2)C1=O [Example 14, Sodium D(-)-α-[(3-n-butyryl-imidazolidin-2-on-1-yl)-carbonylamino]-benzylpenicillin] | – | – | < 1 | – | 128 | – | – | – | 32 | – | 32 | –
11 | CC1(C)S[C@@H]2[C@H](NC(=O)[C@H](NC(=O)N3CCN=C3NS(C)(=O)=O)c3ccccc3)C(=O)N2[C@H]1C(=O)O [Example 19, Sodium D(-)-α-[(2-methylsulphonylamino-imidazolin(2)-1-yl)-carbonylamino]-benzylpenicillin] | – | – | 16 | – | – | – | 16 | 32 | – | – | – | MIC (Proteus vulgaris; strain 1017, 24 hours, 37°C): 16 U/ml
12 | CC(C)(C)C(=O)N1CCN(C(=O)N[C@@H](C(=O)N[C@@H]2C(=O)N3[C@@H]2SC(C)(C)[C@@H]3C(=O)O)c2ccccc2)C1=O [Example 21, Sodium D(-)-α-[(3-pivaloyl-imidazolidin-2-on-1-yl)-carbonylamino]-benzylpenicillin] | 64 | – | < 1 | 256 | 256 | – | – | – | – | 8 | 32 | –
13 | CC1(C)S[C@@H]2[C@H](NC(=O)[C@H](NC(=O)N3CCN(C(=O)OC4CCCCC4)C3=O)c3ccccc3)C(=O)N2[C@H]1C(=O)O [Example 23, Sodium D(-)-α-[(3-cyclohexyloxycarbonyl-imidazolidin-2-on-1-yl)-carbonylamino]-benzylpenicillin] | – | – | < 1 | – | 64 | 16 | – | – | 32 | 8 | 32 | –
14 | Cc1ccc(S(=O)(=O)NC2=NCCN2C(=O)N[C@@H](C(=O)N[C@@H]2C(=O)N3[C@@H]2SC(C)(C)[C@@H]3C(=O)O)c2ccccc2)cc1 [Example 25, Sodium D(-)-α-[(2-tosylamino-imidazolin(2)-1-yl)-carbonylamino]-benzylpenicillin] | 16 | 64 | 32 | > 256 | 64 | 64 | – | – | – | – | 32 | MIC (Klebsiella-Aerobacter; strain K 10, 24 hours, 37°C): 64 U/ml; MIC (Escherichia coli; strain C 165, 24 hours, 37°C): 16 U/ml; MIC (Proteus vulgaris; strain 1017, 24 hours, 37°C): 16 U/ml
15 | CCC(=O)N1CCN(C(=O)N[C@@H](C(=O)N[C@@H]2C(=O)N3[C@@H]2SC(C)(C)[C@@H]3C(=O)O)c2ccccc2)C1=O [Example 26, Sodium D(- )-α-[(2-oxo-3-propionyl-1-imidazolidinyl)-carbonylamino]-benzylpenicillin] | – | 16 | 4 | > 256 | 64 | – | – | – | 8 | 32 | 32 | MIC (Pseudomonas aeruginosa; strain Walter, 24 hours, 37°C): 64 U/ml
16 | CC1(C)S[C@@H]2[C@H](NC(=O)[C@H](NC(=O)N3CCN(S(=O)(=O)c4ccccc4)C3=O)c3ccccc3)C(=O)N2[C@H]1C(=O)O [Example 27, Sodium D(-)-α-[(2-oxo-3-benzenesulphonyl-1-imidazolidinyl)-carbonylamino]-benzylpenicillin] | – | – | 0.5 | > 256 | 64 | – | – | – | – | – | 32 | –
17 | CC1(C)S[C@@H]2[C@H](NC(=O)[C@H](NC(=O)N3CCN(C(=O)NS(C)(=O)=O)C3=O)c3ccccc3)C(=O)N2[C@H]1C(=O)O [Example 30, Sodium D(-)-α-[3-(methylsulphonyl-amino-carbonyl)-imidazolidinon-2-yl-1]-carbonylamino-benzylpenicillin] | – | 64 | 64 | > 256 | 256 | – | – | 8 | 128 | 128 | 32 | –
18 | CC1(C)S[C@@H]2[C@H](NC(=O)[C@H](NC(=O)N3CCN(S(C)(=O)=O)C3=O)c3ccccc3)C(=O)N2[C@H]1C(=O)O [Penicillin No. 1 (Table 3), Sodium D(-)-α-[(3-methylsulphonyl-imidazolidin-2-on-1-yl)-carbonylamino]-benzylpenicillin] | – | – | – | – | – | – | – | – | – | – | – | MIC (Streptococcus faecalis; Table 3, ATCC 9790): 25 U/ml; MIC (Klebsiella-Aerobacter; Table 3, strain 63): 12.5 U/ml; MIC (Klebsiella-Aerobacter; Table 3, strain K 10): 6.2 U/ml; MIC (Escherichia coli; Table 3, strain 14): < 0.8 U/ml; MIC (Escherichia coli; Table 3, strain 183/58): 1.6 U/ml; MIC (Escherichia coli; Table 3, strain A 261): 200 U/ml; MIC (Staphylococcus aureus; Table 3, strain 133): < 0.8 U/ml; MIC (Staphylococcus aureus; Table 3, strain 1756E): 400 U/ml; MIC (Pseudomonas aeruginosa; Table 3, strain F 41): 50 U/ml; MIC (Pseudomonas aeruginosa; Table 3, strain Walter): 50 U/ml; MIC (Proteus vulgaris; Table 3, strain 1017): 3.1 U/ml
19 | Sodium D(-)-α-[(3-methylsulphonyl-4- or 5-methyl-imidazolidin-2-on-1-yl)-carbonylamino]-benzylpenicillin [Example 32] | – | – | – | – | – | – | 8 | 8 | 16 | 32 and 16 | 256 and 128 | –
